Legend:
dopaminergic neurons = assay: Rat model of Parkinson's disease (6-OHDA), immunohistochemistry with anti-TH antibody; type: in vivo; conditions: Wistar rats, 300 mg/kg per day in diet, 6-OHDA lesion; versus rats fed a normal diet
Description: Adult male Wistar rats (280-300 g) were maintained on a 12-hour light/dark cycle at a constant temperature of 20±3° C. Animals had access to food and water ad libitum and weight gain was recorded.
Animals were fed a normal diet or a diet supplemented with the inventive compounds (300 mg/kg per day) for 7 days before induction of the dopaminergic lesion and for 15 days after induction of same.
Seven days after commencement of treatment with the inventive compounds, the rats were stereotactically injected with 6-OHDA (4 μg for 8 min) or buffer (sham rats) in the left part of the median tract of the telencephalon to induce striatonigral denervation.
Tyrosine hydroxylase (TH) is an enzyme which catalyzes the transformation of tyrosine to […]. It is used to label dopaminergic neurons. After the apomorphine sensitization test, the animals were sacrificed and the brains were removed. Brain slices were incubated with anti-TH antibody (SCBT, Santa Cruz, Calif.) and then with a second biotinylated antibody. Visualization was with the ABC staining system kit (Tebu) according to the supplier's instructions.
Viable cells labelled with anti-TH antibody (TH+ cells) were counted. […]

[1] = Plasma lipids in Sprague Dawley rats according to the formulation used; type: in vivo, rat; conditions: gavage every day for 15 days, with Cremophor RH40 compared with CMC and Solutol HS15
Description: A 0.5% (mN) solution of CMC was prepared in water and mixed with 0.1% (VN) Tween 80, then stirred overnight. The inventive compounds were then added and dissolved by stirring and ultrasonication for 30 minutes at 60° C.
The emulsion comprising an inventive compound and a surfactant, Cremophor® RH40 (Polyoxyl 40 Hydrogenated Castor Oil) or Solutol® HS15 (polyethylene glycol 660 12-hydroxystearate) was prepared as follows: the inventive compound was dissolved in a solution of Cremophor® RH40 or Solutol® HS15 previously heated in a water-bath at 60° C. in a ratio for example of 6:1 (m/m). The mixture was placed in a water-bath at 60° C. until a homogeneous mixture was obtained. Said mixture was then dispersed by ultrasonication for 20 minutes at 60° C., at which time the solution became translucid. While stirring, water (MilliQ) preheated at 60° C. was added to the solution to give the desired concentration of the compound. The solution was then mixed on a Vortex® mixer, returned to the water-bath (60° C.) and optionally dispersed by ultrasonication for 30 minutes.
To this end, the compounds were administered by gavage to Sprague Dawley rats every day for 15 days. […]

CCCCCCCCCCCCCCSCC(=O)OCC(COC(=O)CSCCCCCCCCCCCCCC)OC(=O)CSCCCCCCCCCCCCCC [Ex 4a, 1,2,3-tritetradecylthioacetylglycerol]
number of neurons labelled with anti-tyrosine hydroxylase (TH+ neurons) (dopaminergic neurons): greater number of neurons | plasma triglycerides [1]: larger decrease | total plasma cholesterol [1]: larger decrease

Reference: patent publication US20060154984A1, “Therapeutic use of acyl glycerols and the nitrogen- and sulphur- containing analogues thereof” (priority 2003, published 2006)
